Results published in the supplement of paper PMC10307832.

What was measured:
Assay in all cases: relative viability (nuclei count vs DMSO), 5 days (fraction); higher = more cells survive
Omipalisib = compound: COc1ncc(-c2ccc3nccc(-c4ccnnc4)c3c2)cc1NS(=O)(=O)c1ccc(F)cc1F [Omipalisib]
Summary of the method: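 Acceptance criteria were a control CV below 25% and at least one doubling per plate. Lung cancer cell lines in 1536-well plates got five library-drug doses (not always all listed) √10 apart by pinning and were left 5 days with no medium change. Viability divides treated-well nuclei by vehicle-well nuclei and is the median across plates. Nuclei were counted by MetaXpress from 4× Hoechst images.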

Omipalisib + Palbociclib = compound: COc1ncc(-c2ccc3nccc(-c4ccnnc4)c3c2)cc1NS(=O)(=O)c1ccc(F)cc1F [Omipalisib] + CC(=O)c1c(C)c2cnc(Nc3ccc(N4CCNCC4)cn3)nc2n(C2CCCC2)c1=O [Palbociclib] (partner 0.5 µM)
Summary of the method: (§1)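 A single step with final 0.05% Triton X-100, 1% formaldehyde and 1 ug/ml Hoechst fixed the cells and stained nuclei 5 days after treatment. Lung cancer cell lines in 1536-well plates had been treated by pin tool the day after seeding with one drug alone or a fixed anchor-drug dose plus five library-drug doses (not always all listed) in √10 steps, and nuclei were counted on 4× images. Relative viability is the ratio of nuclei in treated wells to nuclei in vehicle wells, taken as the median of duplicate plates.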

Omipalisib + Decitabine = compound: COc1ncc(-c2ccc3nccc(-c4ccnnc4)c3c2)cc1NS(=O)(=O)c1ccc(F)cc1F [Omipalisib] + Nc1ncn([C@H]2C[C@H](O)[C@@H](CO)O2)c(=O)n1 [Decitabine] (partner 2 µM)
Summary of the method: as §1

Cell Line	relative viability (Omipalisib; 0.0003 µM)	relative viability (Omipalisib; 0.003 µM)	relative viability (Omipalisib; 0.03 µM)	relative viability (Omipalisib + Palbociclib; first compound 0.0003 µM)	relative viability (Omipalisib + Palbociclib; first compound 0.003 µM)	relative viability (Omipalisib + Palbociclib; first compound 0.03 µM)	relative viability (Omipalisib + Decitabine; first compound 0.0003 µM)	relative viability (Omipalisib + Decitabine; first compound 0.003 µM)	relative viability (Omipalisib + Decitabine; first compound 0.03 µM)
NCI-H2087	1.02	0.723	0.504	0.247	0.219	0.146	0.327	0.192	0.125
HARA	0.952	0.822	0.42	0.267	0.181	0.169	0.471	0.394	0.258
COR-L 105	0.937	0.976	0.535	0.406	0.432	0.415	0.593	0.589	0.556
NCI-H1944	0.856	0.646	0.371	0.264	0.25	0.169	0.384	0.356	0.239
LOU-NH91	0.999	0.784	0.65	0.586	0.536	0.52	0.857	0.747	0.665
EMC-BAC-2	0.848	0.613	0.549	0.441	0.38	0.311	0.664	0.663	0.654
BEN	0.789	0.577	0.712	0.434	0.444	0.452	0.695	0.612	0.606
EKVX	0.985	0.79	0.44	0.301	0.326	0.182	0.305	0.289	0.238
NCI-H1666	1.01	0.818	0.651	0.641	0.632	0.658	0.843	0.614	0.567
UMC-11	0.886	0.643	0.823	0.332	0.272	0.299	0.491	0.397	0.527
SK-MES-1	0.927	0.607	0.452	0.273	0.271	0.261	0.363	0.262	0.241
HCC-827	1.04	1.04	0.666	0.471	0.381	0.266	0.298	0.244	0.239
LK-2	0.767	0.435	0.345	0.421	0.203	0.225	0.235	0.201	0.147
ABC-1	1.02	0.705	0.538	0.603	0.482	0.364	1.05	0.99	0.742
NCI-H2085	0.987	1.01	0.495	0.553	0.479	0.33	0.524	0.507	0.348
NCI-H1792	0.91	0.495	0.213	0.636	0.424	0.27	0.428	0.37	0.101
HCC-44	1.01	0.953	0.416	0.962	0.962	0.879	0.95	0.914	0.787
